{
  "source": "PubChem BioAssay (NCI)",
  "assay_in_all_cases": "inhibition of tumour cell growth, NCI panel, 48 h",
  "key": {"SR leukemia": {"system": "SR leukemia"}, "PC-3 prostate": {"system": "PC-3 prostate"}, "A549 NSCLC": {"system": "A549 NSCLC"}, "HOP-62 NSCLC": {"system": "HOP-62 NSCLC"}, "LOX IMVI melanoma": {"system": "LOX IMVI melanoma"}, "IGROV1 ovarian": {"system": "IGROV1 ovarian"}, "BT-549 breast": {"system": "BT-549 breast"}, "OVCAR-8 ovarian": {"system": "OVCAR-8 ovarian"}, "MDA-MB-435": {"system": "MDA-MB-435"}, "HOP-92 NSCLC": {"system": "HOP-92 NSCLC"}, "T-47D breast": {"system": "T-47D breast"}, "HCT-116 colon": {"system": "HCT-116 colon"}, "COLO 205 colon": {"system": "COLO 205 colon"}, "CCRF-CEM leukemia": {"system": "CCRF-CEM leukemia"}, "OVCAR-4 ovarian": {"system": "OVCAR-4 ovarian"}, "CAKI-1 renal": {"system": "CAKI-1 renal"}, "DU-145 prostate": {"system": "DU-145 prostate"}, "U251 CNS": {"system": "U251 CNS"}, "HCT-15 colon": {"system": "HCT-15 colon"}, "HCC-2998 colon": {"system": "HCC-2998 colon"}, "OVCAR-3 ovarian": {"system": "OVCAR-3 ovarian"}, "SN12C renal": {"system": "SN12C renal"}, "A498 renal": {"system": "A498 renal"}, "NCI-H460 lung": {"system": "NCI-H460 lung"}, "MALME-3M melanoma": {"system": "MALME-3M melanoma"}, "UO-31 renal": {"system": "UO-31 renal"}, "HT29 colon": {"system": "HT29 colon"}, "OVCAR-5 ovarian": {"system": "OVCAR-5 ovarian"}},
  "note": "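Cells were grown in 96-well plates and exposed to each compound for 48 hours at five concentrations; endpoints were interpolated linearly between bracketing concentrations, or set to the highest concentration if not reached. GI50 is the concentration that inhibits growth by half. TGI is the concentration that stops growth completely.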",
  "data": [
    {"smiles": "CSC1=Nc2c(c(C)c(-c3ccccc3)n2COC(CO)CO)C2=NC(=O)CC(C)N12", "note": "(stereo unspecified)", "values": [
      {"measurement": "GI50", "setting": "SR leukemia", "value": "> 100", "unit": "µM"},
      {"measurement": "TGI", "setting": "SR leukemia", "value": "> 100", "unit": "µM"},
      {"measurement": "GI50", "setting": "PC-3 prostate", "value": "> 100", "unit": "µM"},
      {"measurement": "TGI", "setting": "PC-3 prostate", "value": "> 100", "unit": "µM"},
      {"measurement": "GI50", "setting": "A549 NSCLC", "value": "> 100", "unit": "µM"},
      {"measurement": "TGI", "setting": "A549 NSCLC", "value": "> 100", "unit": "µM"},
      {"measurement": "GI50", "setting": "HOP-62 NSCLC", "value": 98.1, "unit": "µM"},
      {"measurement": "TGI", "setting": "HOP-62 NSCLC", "value": "> 100", "unit": "µM"},
      {"measurement": "GI50", "setting": "LOX IMVI melanoma", "value": "> 100", "unit": "µM"},
      {"measurement": "TGI", "setting": "LOX IMVI melanoma", "value": "> 100", "unit": "µM"},
      {"measurement": "GI50", "setting": "IGROV1 ovarian", "value": "> 100", "unit": "µM"},
      {"measurement": "TGI", "setting": "IGROV1 ovarian", "value": "> 100", "unit": "µM"},
      {"measurement": "GI50", "setting": "BT-549 breast", "value": "> 100", "unit": "µM"},
      {"measurement": "TGI", "setting": "BT-549 breast", "value": "> 100", "unit": "µM"},
      {"measurement": "GI50", "setting": "OVCAR-8 ovarian", "value": "> 100", "unit": "µM"},
      {"measurement": "TGI", "setting": "OVCAR-8 ovarian", "value": "> 100", "unit": "µM"},
      {"measurement": "GI50", "setting": "MDA-MB-435", "value": "> 100", "unit": "µM"},
      {"measurement": "TGI", "setting": "MDA-MB-435", "value": "> 100", "unit": "µM"},
      {"measurement": "GI50", "setting": "HOP-92 NSCLC", "value": "> 100", "unit": "µM"},
      {"measurement": "TGI", "setting": "HOP-92 NSCLC", "value": "> 100", "unit": "µM"},
      {"measurement": "GI50", "setting": "T-47D breast", "value": "> 100", "unit": "µM"},
      {"measurement": "TGI", "setting": "T-47D breast", "value": "> 100", "unit": "µM"},
      {"measurement": "GI50", "setting": "HCT-116 colon", "value": "> 100", "unit": "µM"},
      {"measurement": "TGI", "setting": "HCT-116 colon", "value": "> 100", "unit": "µM"},
      {"measurement": "GI50", "setting": "COLO 205 colon", "value": "> 100", "unit": "µM"},
      {"measurement": "TGI", "setting": "COLO 205 colon", "value": "> 100", "unit": "µM"},
      {"measurement": "GI50", "setting": "CCRF-CEM leukemia", "value": "> 100", "unit": "µM"},
      {"measurement": "TGI", "setting": "CCRF-CEM leukemia", "value": "> 100", "unit": "µM"},
      {"measurement": "GI50", "setting": "OVCAR-4 ovarian", "value": "> 100", "unit": "µM"},
      {"measurement": "TGI", "setting": "OVCAR-4 ovarian", "value": "> 100", "unit": "µM"},
      {"measurement": "GI50", "setting": "CAKI-1 renal", "value": "> 100", "unit": "µM"},
      {"measurement": "TGI", "setting": "CAKI-1 renal", "value": "> 100", "unit": "µM"},
      {"measurement": "GI50", "setting": "DU-145 prostate", "value": "> 100", "unit": "µM"},
      {"measurement": "TGI", "setting": "DU-145 prostate", "value": "> 100", "unit": "µM"},
      {"measurement": "GI50", "setting": "U251 CNS", "value": "> 100", "unit": "µM"},
      {"measurement": "TGI", "setting": "U251 CNS", "value": "> 100", "unit": "µM"},
      {"measurement": "GI50", "setting": "HCT-15 colon", "value": "> 100", "unit": "µM"},
      {"measurement": "TGI", "setting": "HCT-15 colon", "value": "> 100", "unit": "µM"},
      {"measurement": "GI50", "setting": "HCC-2998 colon", "value": "> 100", "unit": "µM"},
      {"measurement": "TGI", "setting": "HCC-2998 colon", "value": "> 100", "unit": "µM"},
      {"measurement": "GI50", "setting": "OVCAR-3 ovarian", "value": "> 100", "unit": "µM"},
      {"measurement": "TGI", "setting": "OVCAR-3 ovarian", "value": "> 100", "unit": "µM"},
      {"measurement": "GI50", "setting": "SN12C renal", "value": "> 100", "unit": "µM"},
      {"measurement": "TGI", "setting": "SN12C renal", "value": "> 100", "unit": "µM"},
      {"measurement": "GI50", "setting": "A498 renal", "value": "> 100", "unit": "µM"},
      {"measurement": "TGI", "setting": "A498 renal", "value": "> 100", "unit": "µM"},
      {"measurement": "GI50", "setting": "NCI-H460 lung", "value": "> 100", "unit": "µM"},
      {"measurement": "TGI", "setting": "NCI-H460 lung", "value": "> 100", "unit": "µM"},
      {"measurement": "GI50", "setting": "MALME-3M melanoma", "value": "> 100", "unit": "µM"},
      {"measurement": "TGI", "setting": "MALME-3M melanoma", "value": "> 100", "unit": "µM"},
      {"measurement": "GI50", "setting": "UO-31 renal", "value": "> 100", "unit": "µM"},
      {"measurement": "TGI", "setting": "UO-31 renal", "value": "> 100", "unit": "µM"},
      {"measurement": "GI50", "setting": "HT29 colon", "value": "> 100", "unit": "µM"},
      {"measurement": "TGI", "setting": "HT29 colon", "value": "> 100", "unit": "µM"},
      {"measurement": "GI50", "setting": "OVCAR-5 ovarian", "value": "> 100", "unit": "µM"},
      {"measurement": "TGI", "setting": "OVCAR-5 ovarian", "value": "> 100", "unit": "µM"}
    ]}
  ]
}
